# Measured values: patent US20250122193A1, “NOVEL PYRIDOCARBAZOLIUM COMPOUNDS AND MEDICAL USES THEREOF” (MyCural Therapeutics, priority 2021, published 2025)
# How the values were obtained:
# [1] = target: T1, homodimerization of the bZip protein GCN4 (Saccharomyces cerevisiae, UniProt P03069); assay: split Gaussia luciferase (GLuc) assay, GCN4:GCN4; type: cell-based; conditions: 6.5 μM
# T1 construct: replacing the existing Zip-gene (GCN4); expressed in transfected cells; host or cells: HeLa
# Experimental: FIG. 1: MYCMI-7 (Compound Example 1) inhibits the MYC:MAX interaction in cells, bind MYC in vitro, and blocks MYC function. A) Molecular structure of MYCMI-7. B-E) split Gaussia luciferase (GLuc) assay. MYC or MYCN and MAX Gluc constructs were co-transfected into HeLa cells together with a firefly luciferase vector. 24 hours post transfection cells were treated with compounds, and after another 17-24 hours cells were harvested and both GLuc and firefly luciferase activities were measured. The mean of three different experiments is shown. […] G) Quantification of isPLA dots. […] J) MYC target gene ODC1 expression after treatment with 5 μM MYCMI-7, quantified by qPCR. […] L) Recombinant MYC bHLHZip protein domain immobilized onto a CM5 chip was subjected to various concentrations of MYCMI-7 and the complex of MYCbHLHZip-MYCMI-7 was measured as response units by SPR. […]
# 0.2-0.4 μg of each GLuc-construct together with 0.05 μg pCMV-LUC (firefly luciferase) were used per transfection in 12 well plates. […] After 60 min incubation at room temperature 20 μM D-luciferin was added (substrate of Firefly luciferase) and luminescence was measured in a Lumat LB9501 (Berthold) or OmegaFluostar (BMG Labtech) luminometer. Directly after, Gaussia luciferase substrate Coelenterazine (Promega) was added to a final concentration of 20 μM in a mixture with “Stop n' Glow” (Promega) and the luciferase activity was measured. […]
# [2] = tested on: Rat1 fibroblasts TGR1 (wt MYC) and HOMyc3 (reconstituted MYC); assay: WST-1 growth/viability assay, MYC-expressing Rat1 fibroblasts; type: cell-based, rat; conditions: Rattus norvegicus, TGR1, 48 h, read-out: GI50 (average growth inhibition of 50%)
# [3] = tested on: immortalized Rat1 fibroblasts with different MYC status; assay: apoptosis assay (Cell Death Detection ELISA), Rat1 fibroblasts; type: cell-based, rat; conditions: 24 hours
# Experimental: (§1) FIG. 4: MYCMI-7 induces apoptosis in malignant cells and growth arrest in normal cells. A) Cell cycle distribution analysis by flow cytometry of MYC-regulated P493-6 cells and normal rat embryo fibroblasts (REFs). Left panel, P493-6 synchronized in G0 by 24 hours treatment of […] doxycycline. Doxycycline was removed and the cells were harvested 48 hours after the addition of fresh medium containing DMSO or 5 μM MYCMI-7. Right panel, flow cytometry analysis of normal REFs treated with DMSO or 5 μM MYCMI-7. B) Apoptosis assay using the Cell Death Detection ELISA^plus kit. Left panel, immortalized Rat1 fibroblasts with different MYC status after 24 hours of 5 μM MYCMI-7 treatment, middle panel and right panels, normal REFs and normal peripheral blood lymphocytes, respectively, after 24 and 48 hours of 5 μM MYCMI-7 treatment. C) Measurement of viability and apoptosis by Apo-Tox Glo Triplex assay in A375 melanoma cells after 3 days of treatment with MYCMI-7 with the indicated concentrations. […] E) NHDFs treated with 3 μM MYCMI-7 for 72 hrs. Viability was measured by trypan blue exclusion assay. F) Cell growth measured with Cyt62 assay of primary normal human epidermal melanocytes (NHEM) treated for 72 hours with MYCMI-7, G) Viability measured by trypan blue exclusion assay of NHEM after treatment for 72 hours with MYCMI-7.
# normal REFs = assay: apoptosis assay (Cell Death Detection ELISA), normal REFs; type: cell-based, rat; conditions: 5 μM, 24 and 48 hours
# Experimental: as §1
# [4] = tested on: normal human peripheral blood lymphocytes; assay: apoptosis assay (Cell Death Detection ELISA), peripheral blood lymphocytes; type: cell-based; conditions: 5 μM, 24 and 48 hours
# Experimental: as §1
# [5] = tested on: primary normal human epidermal melanocytes (NHEM); assay: cell growth and trypan blue viability, NHEM; type: cell-based; conditions: 72 hours
# Experimental: as §1
# HCT116-TIR-AID cells = assay: auxin-induced TOP2A depletion in HCT116 cells; type: cell-based
# in vivo = conditions: mouse, plasma, ip, 6.25 mg/kg
# [6] = tested on: MCF-7 breast carcinoma cells; assay: RNA-seq gene set enrichment analysis; conditions: 5 μM, 24 hrs
# [7] = tested on: MYC/BCL-XL-driven acute myeloblastic leukemia
# [8] = oxidative metabolism in human liver microsomes
# [9] = oxidative metabolism in mouse liver microsomes
# [10] = tested on: HO15.19 (MYC-/-) Rat1 fibroblasts; assay: WST-1 growth/viability assay, MYC null Rat1 fibroblasts
# [11] = endpoint, compared with vehicle
# T1 sequence (P03069 253-274 limits assumed): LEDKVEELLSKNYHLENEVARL
smiles,measurement,setting,value
"CCN(CC)CC[n+]1ccc2c(C)c3[nH]c4ccccc4c3c(C)c2c1 [MYCMI-7, 2-(5,11-Dimethyl-6H-25-pyrido[4,3-b]carbazol-2-yl)-N,N-diethylethanamine bromide]",effect on homodimerization of GCN4 (GCN4:GCN4 GLuc),[1],did not have any significant effect
same,GI50,[2],~2000 nM
same,apoptosis,"[3]; MYC knockout HO15.19, 5 μM",not
same,apoptosis,"[3]; TGR1 and HOMyc3, 5 μM",induced apoptosis
same,apoptosis,normal REFs,did not induce apoptosis
same,apoptosis,[4],did not induce apoptosis
same,cell death (trypan blue),[5],did not induce cell death
same,metabolic activity,[5],reduced metabolic activity
same,effect of TOP2A depletion on sensitivity to MYCMI-7 (resazurin assay),HCT116-TIR-AID cells; auxin-induced depletion,does not affect
same,effect of TOP2A depletion on MYCMI-7-induced inhibition of MYC:MAX interactions (isPLA),HCT116-TIR-AID cells; pre-treatment with auxin,no effect
same,half-life,in vivo,1.5 h
same,efflux,Caco2 cell assay,strong efflux
same,GSEA of differentially expressed genes: MYC and E2F target genes,[6],downregulation
same,body weight,[7]; 12.5 mg/kg daily i.p.,retained their weight
same,mouse survival,[7]; 12.5 mg/kg daily i.p.,no significant difference
same,side effects,[7]; 12.5 mg/kg daily i.p.,no signs of severe side effects
same,GFP positive leukemic cells in bone marrow,"[7]; 12.5 mg/kg daily i.p., day 15",undetectable
same,leukemic cells in bone marrow,"[7]; 12.5 mg/kg daily i.p., end point (20+/−4 days)",around 10%
same,spleen structure,"[7]; endpoint, compared to vehicle",retained a more normal spleen structure
same,MYC expression in leukemic cells (IHC),[7]; [11],strongly reduced
same,cleaved caspase 3 and H3K9me3 in leukemic spleens (western blot),[7]; [11],increased expression
same,stability against oxidative metabolism,[8],stable
same,stability against oxidative metabolism,[9],stable
same,concentration above which viability of HO15.19 cells started to go down (off target effects),[10],higher than 10 μM
same,proliferation/viability of MYC null cells,"[10]; concentrations of 10 μM, WST-1",unaffected
